For series [1], the species on record is Mus musculus. Nature of the series: Dose required to produce a 50% reduction in general motor activity after injection in mice. It counts as functional.
The nature of series [2]: Brain penetration index calculated as ([Brain]/[Liver])x100 @ 5 min after sc administration in mice at 3-39 mg/kg. It counts as functional.
The species named for series [3] is Mus musculus. The note with it: 3-39 mg/kg.
A short description of series [4]: Partition coefficient of the compound. To be noted: octanol/water. It is filed as ADME.
The species named for series [5] is Mus musculus. To be noted: Liver.
Series [6] in a line: Brain penetration index calculated as ([Brain]/[Liver])x100 @ 5 min after sc administration in mice at 33 mg/kg. It counts as functional. To be noted: route subcutaneous.
The test system of series [7] is Mus musculus. Kind of series: Concentration of liver in mice after sc administration at 33 mg/kg. It counts as functional, organism-based. Further details: dose 33 mg/kg.
Another series is filed under the species Rattus norvegicus. Kind of series: Inhibitory concentration that suppress the CA1 population spike in rat hippocampus slices. It is filed as functional, organism-based.
In series [8] the test system is Mus musculus. Kind of series: Concentration of brain in mice after sc administration at 33 mg/kg. It is filed as functional, organism-based. Further details: dose 33 mg/kg.

As a reminder, the IC50 is the concentration at which inhibition is half-maximal. Read a low IC50 as greater potency in that assay.

`C=CC(N)CCC(=O)O` (stereo unspecified) [VIGABATRIN] displayed a Dose in the series filed under Mus musculus [1] of 9000 µM/kg.

Take `NCCCC(=O)O` [GAMMA-AMINOBUTYRIC ACID]: the BPI in series [2] is given as 1. Besides, the Concentration (nM (g of tissue)-1) in the series listed under Mus musculus [3] came to 0.04; in the series filed under Mus musculus [5], 4.17. Also, in [4], the Partition coefficient worked out at 0.004.

Turning to `C=CC(N)CCC(=O)OCC(COC(=O)CCCCCCC/C=C\C/C=C\C/C=C\CC)OC(=O)CCCN` (stereo unspecified), the BPI in series [6] is 97. The Concentration (nM (g of tissue)-1) with Mus musculus [7] was 8.94; in the series with Mus musculus [8], 8.34. The Dose in the series filed under Mus musculus [1] stood at 25 µM/kg. In series [4], this molecule had a Partition coefficient of 1.76. Also, the IC50 in the series listed under Rattus norvegicus was 800 µM.
